According to patent publication US8895568B2, “Compositions comprising substituted pteridines as agrochemicals” (Dow AgroSciences LLC, priority 2009, dated 2014):
Where two headings read alike, the source gives them in different places.

How the values were obtained:
Assay type in all cases: in vivo
Colletotricum lagenarium = assay: Cucumber Anthracnose (COLLLA), foliar spray, percent disease control
Method: The activity of the compounds as effective fungicides was determined by applying the compounds to plants and observing control of fungal disease. The compounds were formulated at 200 ppm in 10 vol. % acetone plus 90 vol. % Triton X water (deionized water 99.99 wt %+0.01 wt % Triton X100), giving a “formulated test compound.” In a few cases, compounds were formulated at 75 or 8.3 ppm rather than 200 ppm in 10 vol. % acetone plus 90 vol. % Triton X water (deionized water 99.99 wt. %+0.01 wt. % Triton X100), giving a “formulated test compound.” Formulated test compounds were applied to plants using a turn table sprayer fitted with two opposing air atomization nozzles which delivered approximately 1500 L/ha of spray volume. All plants were inoculated with spores of the fungus the day after treatment, then incubated in an environment conducive to disease development. Disease severity was evaluated 4 to 15 days later, depending on the disease and the speed of disease development. The following experiments were performed in the laboratory to determine the fungicidal efficacy of the compounds of the invention. Cucumber Anthracnose (causal agent Colletotricum lagenarium; Bayer code COLLLA): Cucumber plants (variety Bush Champion) were grown from seed in a soil-less peat-based potting mixture (Metromix) until the first true leaf was 20-80% expanded. Each pot contained 1 seedling. These plants were sprayed until wet with the formulated test compound. On the following day, the leaves were inoculated with an aqueous spore suspension of Colletotricum lagenarium and the plants were kept in high humidity for one day to permit spores to germinate and infect the leaf. The plants were then transferred to a growth chamber until disease developed on untreated control plants. […] The effectiveness of the test compounds at controlling disease when sprayed on leaves was determined by assessing the severity of disease on treated plants, then converting the severity to percent control based on the level of disease on untreated, inoculated plants. Data are the level (in percent) at which the given disease was controlled when the given compound was applied to the foliage of the plants at 200 ppm. In a few cases (noted in the table) the compound was applied to the plants at 75 ppm or 8.3 ppm.

[1] = system: Pseudoperonospora cubensis; assay: Cucumber Downy Mildew (PSPECU), foliar spray, percent disease control; settings: read-out: PSPECU percent control
Method: The activity of the compounds as effective fungicides was determined by applying the compounds to plants and observing control of fungal disease. The compounds were formulated at 200 ppm in 10 vol. % acetone plus 90 vol. % Triton X water (deionized water 99.99 wt %+0.01 wt % Triton X100), giving a “formulated test compound.” In a few cases, compounds were formulated at 75 or 8.3 ppm rather than 200 ppm in 10 vol. % acetone plus 90 vol. % Triton X water (deionized water 99.99 wt. %+0.01 wt. % Triton X100), giving a “formulated test compound.” Formulated test compounds were applied to plants using a turn table sprayer fitted with two opposing air atomization nozzles which delivered approximately 1500 L/ha of spray volume. All plants were inoculated with spores of the fungus the day after treatment, then incubated in an environment conducive to disease development. Disease severity was evaluated 4 to 15 days later, depending on the disease and the speed of disease development. The following experiments were performed in the laboratory to determine the fungicidal efficacy of the compounds of the invention. Cucumber Downy Mildew (causal agent Pseudoperonospora cubensis; Bayer code […]): Cucumber plants (variety Bush Champion) were grown from seed in a soil-less peat-based potting mixture (Metromix) until the first true leaf was 20-80% expanded. Each pot contained 1 seedling. These plants were sprayed until wet with the formulated test compound. On the following day, the leaves were inoculated with an aqueous suspension of downy mildew sporangia and the plants were kept in high humidity for one day to permit sporangia to germinate and infect the leaf. The plants were then incubated in a growth chamber until disease developed on untreated control plants. […] The effectiveness of the test compounds at controlling disease when sprayed on leaves was determined by assessing the severity of disease on treated plants, then converting the severity to percent control based on the level of disease on untreated, inoculated plants. Data are the level (in percent) at which the given disease was controlled when the given compound was applied to the foliage of the plants at 200 ppm. In a few cases (noted in the table) the compound was applied to the plants at 75 ppm or 8.3 ppm.

Cochliobolus sativus = assay: Spot Blotch of Wheat (COCHSA), foliar spray, percent disease control; settings: Bipolaris sorokiniana, read-out: COCHSA percent control
[2] = system: DROSME, AEDSAE, LAPHEG, or HELIVI; assay: Insecticidal activity, active if any of DROSME, AEDSAE, LAPHEG or HELIVI was controlled at 80% or more; settings: read-out: >80% mortality on any insect species @ 4000 ppm

| Structure (SMILES) | pest or weed control at 200 µg/mL (Colletotricum lagenarium; foliar) | pest or weed control at 200 µg/mL ([1]; foliar) | pest or weed control at 200 µg/mL (Cochliobolus sativus; foliar) | pest or weed control at 4000 ppm [2] | pest or weed control at 200 µg/mL (Colletotricum lagenarium; foliar spray) | pest or weed control at 200 µg/mL ([1]; foliar spray) | pest or weed control at 200 µg/mL (Cochliobolus sativus; foliar spray) |
| --- | --- | --- | --- | --- | --- | --- | --- |
| FC(F)(F)c1ccnc(Oc2ccc(CCNc3ncnc4nccnc34)cc2)c1 [Compound 2, pteridin-4-yl-{2-[4-(4-trifluoromethylpyridin-2-yloxy)-phenyl]-ethyl}-amine] | 80 to 100% | 80 to 100% | 50 to 79% | > 80% |  |  |  |
| FC(F)(F)c1ccc(Oc2ccc(CCNc3ncnc4nccnc34)cc2)nc1 [Compound 5] | 80 to 100% | 80 to 100% | 0 to 49% | > 80% |  |  |  |
| FC(F)(F)c1cccc(Oc2ccc(CCNc3ncnc4nccnc34)cc2)n1 [Compound 6] | 0 to 49% | 80 to 100% | 0 to 49% | > 80% |  |  |  |
| Fc1cccc(Oc2ccc(CCNc3ncnc4nccnc34)cc2)n1 [Compound 7, {2-[4-(6-Fluoropyridin-2-yloxy)-phenyl]-ethyl}-pteridin-4-ylamine] | 0 to 49% | 80 to 100% | 0 to 49% | > 80% |  |  |  |
| N#Cc1ccnc(Oc2ccc(CCNc3ncnc4nccnc34)cc2)c1 [Compound 8] | 80 to 100% | 80 to 100% | 0 to 49% | > 80% |  |  |  |
| COc1cccc(Oc2ccc(CCNc3ncnc4nccnc34)cc2)n1 [Compound 10, {2-[4-(6-Methoxypyridin-2-yloxy)-phenyl]-ethyl}-pteridin-4-yl-amine] | 0 to 49% | 80 to 100% | 0 to 49% | > 80% |  |  |  |
| COc1cc(C(F)(F)F)cc(Oc2ccc(CCNc3ncnc4nccnc34)cc2OC)n1 [Compound 178] | 0 to 49% | 0 to 49% | 0 to 49% |  |  |  |  |
| COc1cc(C(F)(F)F)cc(Oc2cc(C)c(CCNc3ncnc4nccnc34)cc2C)n1 [Compound 179] | 0 to 49% | 0 to 49% | 0 to 49% |  |  |  |  |
| CC(C)Oc1cc(CCNc2ncnc3nccnc23)ccc1Oc1cc(C(F)(F)F)ccn1 [Compound 180, {2-[3-(Isopropoxy)-4-(4-trifluoromethyl-pyridin-2-yloxy)-phenyl]-ethyl}-pteridin-4-ylamine] | 50 to 79% | 80 to 100% | 0 to 49% |  |  |  |  |
| COc1cc(CCNc2ncnc3nccnc23)cc(OC)c1O [Compound 181] | 0 to 49% | 0 to 49% | 0 to 49% |  |  |  |  |
| CC(C)(C)COC(=O)c1ccnc(Oc2ccc(CCNc3ncnc4nccnc34)cc2)c1 [Compound 182] | 0 to 49% | 80 to 100% | 0 to 49% |  |  |  |  |
| CCOC(=O)c1ccnc(Oc2ccc(CCNc3ncnc4nccnc34)cc2)c1 [Compound 183] | 0 to 49% | 80 to 100% | 0 to 49% |  |  |  |  |
| CC(F)(F)c1cc[n+]([O-])c(Oc2ccc(CCNc3ncnc4nccnc34)cc2)c1 [Compound 184, (2-{4-[4-(1,1-difluoroethyl)-1-oxy-pyridin-2-yloxy]-phenyl}-ethyl)-pteridin-4-yl-amine] | 50 to 79% | 80 to 100% | 0 to 49% |  |  |  |  |
| COc1cc(C(F)(F)F)cc(Oc2ccc(CCNc3ncnc4nccnc34)cc2F)n1 [Compound 185] | 0 to 49% | 80 to 100% | 0 to 49% |  |  |  |  |
| COc1cc(CCNc2ncnc3nccnc23)cc(OC)c1Oc1cc(C(F)(F)F)ccn1 [Compound 186] | 0 to 49% | 80 to 100% | 0 to 49% |  |  |  |  |
| CCOc1cc(CCNc2ncnc3nccnc23)ccc1Oc1cc(C(C)(F)F)ccn1 [Compound 189] | 50 to 79% | 80 to 100% | 0 to 49% |  |  |  |  |
| COc1cc(C(C)(F)F)cc(Oc2ccc(CCNc3ncnc4nccnc34)cc2)n1 [Compound 191, (2-{4-[4-(1,1-Difluoroethyl)-6-methoxypyridin-2-yloxy]-phenyl}-ethyl)-pteridin-4-yl-amine] | 50 to 79% | 80 to 100% | 0 to 49% |  |  |  |  |
| CC(F)(F)c1ccnc(Oc2ccc(CCNc3ncnc4nccnc34)cc2F)c1 [Compound 193] | 0 to 49% | 80 to 100% | 0 to 49% |  |  |  |  |
| CC(C)Oc1cc(CCNc2ncnc3nccnc23)ccc1Oc1cc(C(C)(F)F)ccn1 [Compound 195] | 50 to 79% | 80 to 100% | 0 to 49% |  |  |  |  |
| CC(=O)Oc1cc(CCNc2ncnc3nccnc23)ccc1Oc1cc(C(C)(F)F)ccn1 [Compound 196] | 0 to 49% | 80 to 100% | 0 to 49% |  |  |  |  |
| CC(F)(F)c1ccnc(Oc2ccc(CCNc3ncnc4nccnc34)cc2O)c1 [Compound 197, 2-[4-(1,1-Difluoroethyl)-pyridin-2-yloxy]-5-[2-(pteridin-4-ylamino)-ethyl]-phenol] | 0 to 49% | 80 to 100% | 0 to 49% |  |  |  |  |
| Cc1cc(Oc2cc(C(F)(F)F)ccn2)ccc1OCCNc1ncnc2nccnc12 [Compound 201] |  |  |  |  | 0 to 49% | 80 to 100% | 0 to 49% |
| CCOc1cc(CCNc2ncnc3nccnc23)ccc1Oc1cc(C(C)C)ccn1 [Compound 205] |  |  |  |  | 0 to 49% | 80 to 100% | 0 to 49% |
| CC(C)(C)c1ccnc(Oc2ccc(CCNc3ncnc4nccnc34)cc2)c1 [Compound 207, {2-[4-(4-tert-Butylpyridin-2-yloxy)-phenyl]-ethyl}-pteridin-4-ylamine] |  |  |  |  | 0 to 49% | 80 to 100% | 0 to 49% |
| COc1ccc(CCNc2nc(C)nc3nc(C)c(C)nc23)cc1 [Compound 208, [2-(4-Methoxyphenyl)-ethyl]-(2,6,7-trimethylpteridin-4-yl)-amine] |  |  |  |  | 0 to 49% | 50 to 79% | 0 to 49% |
| Cc1nc(NCCc2ccc(O)cc2)c2nc(C)c(C)nc2n1 [Compound 209] |  |  |  |  | 0 to 49% | 0 to 49% | 0 to 49% |
| COc1ccc(CCNc2ncnc3nccnc23)cc1Br [Compound 210] |  |  |  |  | 0 to 49% | 80 to 100% | 0 to 49% |
| Oc1ccc(CCNc2ncnc3nccnc23)cc1Br [Compound 211] |  |  |  |  | 0 to 49% | 0 to 49% | 0 to 49% |
| CC(C)(C)OC(=O)N(CCc1ccc(O)cc1)c1ncnc2nccnc12 [Compound 217, [2-(4-Hydroxyphenyl)-ethyl]-pteridin-4-yl-carbamic acid tert-butyl Ester] |  |  |  |  | 0 to 49% | 50 to 79% | 50 to 79% |
